Assay results as given in paper PMC4821887, “Identification of chemicals that mimic transcriptional changes associated with autism, brain aging and neurodegeneration” (Nature Communications, 2016).
“Also recorded” adds a separate entry of the source.

Assays:
[1] = test system: mouse cortical neuron-enriched cultures; test: RNA-seq transcriptional screen with hierarchical clustering and cluster membership; type: cell-based; details: 24 h at non-toxic concentration; hierarchical clustering of 5,121 variably expressed genes
Experimental: Cultures were treated with the non-cytotoxic dose of each chemical, by exchanging half of the original medium with chemicals at 2 × concentration in prewarmed feeding medium, on DIV 7 for 24 h in 12-well plates at a density of 5 × 10^5 cells per well. RNA was isolated using RNeasy plus mini kit (Cat. #74134, Qiagen). RNA yield and quality were determined using a Nanodrop 1000 Spectrophotometer (Thermo Scientific). Samples were further assessed for quality using either an Agilent Bioanalyzer 2100 or TapeStation 2200 to obtain a RIN. RIN values exceeding 7 were used for sequencing. RNA samples were used to generate and barcode complementary DNA libraries using the TruSeq RNA Library Preparation Kit at the UNC High Throughput Sequencing Facility. Pools of 24 multiplexed samples were sequenced per lane on an Illumina HiSeq 2500 using 50-bp paired-end reads.
RNA-seq reads were filtered using TagDust and aligned to the reference mouse genome (mm9) with TopHat using default parameters. Reads aligning to ribosomal RNA genes were removed. Transcript abundance was estimated by computing Reads per kilobase per million mapped reads (RPKM) using RefSeq gene models aggregated by gene symbol. For differential expression analyses, raw counts over RefSeq exons were used, and then were compared across samples using DESeq[62].
RPKMs for all RefSeq genes and all samples were filtered such that a given gene had >90% of samples with RPKM >0 and gene length exceeded 500 bp. RPKMs were then log10-transformed, quantile-normalized, median-centred, and the effects due to culture or sequencing batch were removed using a mixed model analysis of variance. This batch correction step was performed on individual experiments rather than chemical–vehicle ratios to reduce the effects due to variations in culture composition as well as batch-to-batch variations at the level of sequencing. Genes were then median-centred again, and filtered such that their s.d. exceeded 0.1. Chemical replicates were then combined using the median. Classes of chemicals were then discovered in two ways. First, we performed hierarchical clustering using average linkage and Pearson correlation distance measures. The boundaries of the discovered classes from clustering were set by computing pairwise Spearman correlations for all samples. A given cluster had to have at least three members with the minimum pairwise Spearman correlation coefficient exceeding 0.2, though cluster members often exceeded a correlation of 0.6 (Supplementary Fig. 5c,d). Seven chemical clusters were discovered, however one was removed due to failing to have a positive silhouette width, a metric of cluster robustness. These definitions enabled the three positive control topoisomerase inhibitors to form a cohesive group of chemicals with known structural and functional similarity (cluster 5). None of the culture or sequencing batches contributed to the formation of any one of the final six clusters (Supplementary Fig. 4).

[2] = test system: Rest, Gsta4, Gstm1, Hmox1 transcripts in cortical cultures; test: Quantitative real-time PCR of cluster 2 upregulated genes; type: cell-based, mouse; details: fenamidone 10 μM or indicated doses, 24 h, relative to vehicle
Experimental: Total RNA was extracted and purified using the RNeasy plus mini kit (Qiagen) following the manufacturer's instructions. RNA was quantified using Nanodrop 1000 (Thermo Scientific) and reverse transcribed using iScript Reverse Transcription Supermix (Bio-Rad). Quantitative real-time PCR analysis was performed in technical duplicates using SYBR Green PCR master mix (Applied Biosystems) in a 7500 Real-Time PCR instrument (Applied Biosystems). An amount of 10 ng of complementary DNA was used in each reaction. Fold change of expression of the target RNA in each treatment condition relative to the untreated sample were calculated by raising 2 to the power of −ΔΔCt. ΔΔCt was calculated by subtracting the ΔCt of the untreated sample to the ΔCt of each treatment condition. The ΔCt of each sample was calculated by subtracting the average Ct of Gapdh to the average Ct of the target RNA. The following primers were used at a final concentration of 0.5 μM:
Rest (F: 5′-[…]-3′, R: 5′-[…]-3′); Gsta4 (F: 5′-[…]-3′, R: 5′-[…]-3′); Gstm1 (F: 5′-[…]-3′, R: 5′-[…]-3′); Hmox1 (F: 5′-[…]-3′, R: 5′-[…]-3′); and Gapdh (F: 5′-[…]-3′, R: 5′-[…]-3′).

[3] = test system: mouse cortical neuron cultures; details: mouse, 24 h, 10 µM
[4] = test system: mouse cortical neuron cultures; test: Fluorescence immunocytochemistry for cellular composition (NeuN, Gfap, Iba1); type: cell-based; details: 10 μM, 24 h, relative to vehicle
[5] = test system: mitochondrial superoxide in cortical neurons; test: Mitochondrial superoxide detection (MitoSOX Red live-cell imaging); type: cell-based, mouse; details: 2 h treatment, MitoSOX, vincristine 500 µM in Supplementary Fig. 10b
[6] = test system: purified tubulin; test: Tubulin polymerization assay (cell-free, BK011P); type: biochemical; details: 37 °C, fluorescence over 60 min, equimolar doses
[7] = in vivo; cited from earlier work
[8] = test system: cortical neurons; test: Soma morphology (proportion of cells with altered soma morphology) in live-cell imaging; type: cell-based, mouse; details: 2 h treatment, vincristine 500 µM in Supplementary Fig. 10c

## CSC1=N[C@@](C)(c2ccccc2)C(=O)N1Nc1ccccc1 [fenamidone]
[1]
  Chemical cluster assigned by gene expression: cluster 2
[2]
  Expression of Nrf2 target antioxidant response genes and Rest (qRT-PCR validation): Upregulated
[3]
  % Dead cells (vehicle subtracted): 1.638%
[4]
  Change in cellular composition (number of NeuN, Gfap or Iba1 positive cells): did not; also recorded: no significant change
[5]
  Mitochondrial superoxide (O2−) production: dose dependent
[5]; listed as Fenamidone
  Mitochondrial superoxide (O2−) production: concentration-dependent increase
[6]
  Effect on tubulin polymerization: did not impair
[7]
  Neurotoxicity in a set of assays used by regulatory agencies: No evidence of neurotoxicity
[8]
  Soma swelling / aberrant cell morphology: dose dependent
[8]; listed as Fenamidone
  Soma swelling / aberrant cell morphology: swelling of neuronal soma
